# According to US9505730B2, “Mineralocorticoid receptor antagonists” (Merck Sharp & Dohme Corp., priority 2011, dated 2016):
# Target: T1, full-length human Mineralocorticoid Receptor (MR) (Homo sapiens, UniProt P08235)
# T1 construct: host or cells: PathHunter CHO-K1 cells
# T1 sequence (P08235 1-984): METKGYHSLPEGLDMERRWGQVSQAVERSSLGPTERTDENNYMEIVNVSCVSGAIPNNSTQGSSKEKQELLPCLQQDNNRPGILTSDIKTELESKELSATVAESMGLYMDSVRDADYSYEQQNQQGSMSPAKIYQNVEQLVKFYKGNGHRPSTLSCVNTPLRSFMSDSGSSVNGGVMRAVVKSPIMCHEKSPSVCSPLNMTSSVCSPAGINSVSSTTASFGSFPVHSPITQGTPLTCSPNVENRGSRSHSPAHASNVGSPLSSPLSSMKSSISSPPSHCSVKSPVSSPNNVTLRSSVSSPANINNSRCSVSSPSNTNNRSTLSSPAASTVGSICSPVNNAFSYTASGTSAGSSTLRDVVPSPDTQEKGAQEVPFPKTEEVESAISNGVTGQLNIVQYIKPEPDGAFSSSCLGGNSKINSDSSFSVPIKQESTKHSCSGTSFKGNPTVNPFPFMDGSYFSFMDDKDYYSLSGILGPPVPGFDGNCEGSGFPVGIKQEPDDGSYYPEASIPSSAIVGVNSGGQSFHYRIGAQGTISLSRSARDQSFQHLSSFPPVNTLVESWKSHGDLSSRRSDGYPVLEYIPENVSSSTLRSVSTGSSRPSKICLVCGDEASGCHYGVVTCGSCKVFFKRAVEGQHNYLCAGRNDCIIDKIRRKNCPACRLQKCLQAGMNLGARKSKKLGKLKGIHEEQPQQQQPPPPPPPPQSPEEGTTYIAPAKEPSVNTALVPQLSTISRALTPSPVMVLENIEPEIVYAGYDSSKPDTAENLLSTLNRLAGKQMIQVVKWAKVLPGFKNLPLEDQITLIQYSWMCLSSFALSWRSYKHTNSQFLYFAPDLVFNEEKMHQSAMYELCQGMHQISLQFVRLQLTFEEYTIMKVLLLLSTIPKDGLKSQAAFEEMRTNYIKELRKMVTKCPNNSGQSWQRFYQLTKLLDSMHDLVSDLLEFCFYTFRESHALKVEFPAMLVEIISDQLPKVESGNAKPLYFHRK
# Assay: human MR NH Pro assay (PathHunter Protein:Protein interaction assay, MR antagonism)
# Type: cell-based
# Conditions: PathHunter CHO-K1 cells overexpressing human MR; aldosterone 0.3 nM; 6 hours at 37° C.; luminescence; read-out: IC50 rating
# Method: The activity of the compounds of the present invention regarding mineralocorticoid receptor antagonism was evaluated using the following assay.
# Assessment of Mr Potency in Hmr Nh Pro Assay
# The human MR NH Pro assay is a commercially available PathHunter™ Protein: Protein interaction assay (DiscoveRx; http://www.discoverx.com/nhrs/prod-nhrs.php) that measures the ability of compounds to antagonize full-length human Mineralocorticoid Receptor (MR) binding to a coactivator peptide. PathHunter™ CHO-K1 cells that overexpress human MR (Cat #93-0456C2, Lot No: 09B0913) were cultured in growth media (F12K w/Glutamine and phenol red (Gibco 11765-047) supplemented with 10% HI FBS (Gibco 16000); 0.25 mg/ml Hygromycin in PBS (Invitrogen 10687-010, 50 mg/ml); 100 I.U./mL and 100 μg/mL Pen/Strep (Gibco 15140-122); 0.6 mg/mL Geneticin).
# Compounds were assessed for MR antagonist activity by incubating the cells with a titrating dose of compound in F12K w/Glutamine and phenol red culture media (Invitrogen 11765-047) supplemented with 1% Charcoal/Dextran Treated FBS (Hyclone #SH30068.01) and aldosterone (0.3 nM) for 6 hours at 37° C.
# • F12K w/Glutamine and phenol red (Gibco 11765-047) • 10% HI FBS (Gibco 16000) • 0.25 mg/ml Hygromycin in PBS (Invitrogen 10687-010, 50 mg/ml) • 100 I.U./mL and 100 μg/mL Pen/Strep (Gibco 15140-122) • 0.6 mg/mL Geneticin (Gibco 10131, 50 mg/ml) 2. Assay media: • F12K w/Glutamine and phenol red (Invitrogen 11765-047) • 1% Charcoal/Dextran Treated FBS (Hyclone #SH30068.01) 3. 3× PathHunter Detection Reagents (Cat#93-0001) (need ˜6 ml/plate). […] Control Agonist: Aldosterone: Sigma cat #A9477 • Prepare stock solution—10 μM in DMSO kept at −20 C • for assay, dilute in assay media to 1.8 or 6 nM (6× of final concentration=about 0.3 nM to about 1.0 nM) 5. Cell line: PathHunter CHO-K1 MR cells Cat #93-0456C2, Lot No: 09B0913, from operation liquid nitrogen stock. 6. Control Antagonist: Spironolactone: Sigma #S-3378 and Eplerenone Sigma #107724-20-9 (10 mM stock concentration also prepared in DMSO and stored at −20° C.). Methods: Assay Set up and Calculations: • 1. Cells were grown in F12+FBS+Hygromycin+pen/strep+Genetin. • 2. Cells were collected with 0.05% trypsin and the cell suspension was spun and resuspended in a volume of F12+1.5% CD-FBS and counted. • 3. The cells were resuspended to 4×10^5 cells/mL. • 4. Cells were (25 μL/well) added to the wells of a 384 well plate. • 5. The plate was then incubated at 37° C. over night in a humidified incubator with 5% CO2. • 6. Test compounds were titrated starting at 4.4 mM, 10-point titration in 1:3 dilution. • 7. Aldosterone was diluted in assay media to 1.8 nM or 6 nM from 10 μM stock (final concentration to be about 0.3 nM to about 1.0 nM). Protocol for 384 well plate format: 6 hr treatment: • 1. Plated 10K exponentially growing cells/well (25 μL) resuspended in assay media to each well using the Multidrop (Thermo Electron). Use white wall, clear bottom assay plates (Costar #3570) and incubate overnight at 37° C., 5% CO2. • 2. 0.25 μL 120× test compound (final DMSO concentration should be <1%) was added to each well n=2, 10 point titrations starting at 36.7 μM final concentration. • 3. 5 μL 6× agonist (final aldosterone concentration should be about 0.3 nM to about 1.0 nM) was added to all wells using the PlateMate Plus.
# (ThermoFisher) (except those wells in columns 23 and 24) • 4. 5 μL of assay media was added to all wells in column 23 and 24. • 5. Plates were incubated 6 hrs at 37° C., 5% CO2. • 6. 15 μL 3× DiscoveRx detection reagent was added to each well. • 7. Plates were incubated for 1 hour at room temperature (plates stored in the dark). • 8. Plates were read on Envision (PerkinElmer) luminesence plate reader and analyzed using ADA. LC/MS method: (LC2M_Low/Med_Positive mode). LC Conditions: 5-98% CH3CN/H2O+v 0.1% TFA over 1.25 min; Flow Rate=1.5 mL/min, UV wavelength 254 nm; Column: Waters XTerra® MS C18 3.5 μm 2.1×20 mm IS™
row,IC50 [nM],Structure (SMILES)
1,100 to 500,"C[C@H](c1ccccc1)N1C(=O)O[C@](Cc2ccccc2)(C(=O)N2Cc3ccccc3C2)C1=O [Compound 22, (5R)-Benzyl-5-(1,3-dihydro-2H-isoindol-2-ylcarbonyl)-3-[(1R)-1-phenylethyl]-1,3-oxazolidine-2,4-dione]"
2,< 100,"COc1cc(CNC(=O)[C@@]2(Cc3ccccc3)OC(=O)N([C@H](C)c3ccc(F)cc3)C2=O)cc(OC)c1 [Compound 8, (5R)-5-Benzyl-N-(3,5-dimethoxybenzyl)-3-[(1R)-1-(4-fluorophenyl)ethyl]-2,4-dioxo-1,3-oxazolidine-5-carboxamide]"
3,100 to 500,"C[C@H](c1ccc(F)cc1)N1C(=O)O[C@](Cc2ccccc2)(C(=O)Nc2ccc(Cl)cc2)C1=O [Compound 14, (5R)-5-Benzyl-N-(4-chlorophenyl)-3-[(1R)-1-(4-fluorophenyl)ethyl]-2,4-dioxo-1,3-oxazolidine-5-carboxamide]"
4,< 100,"COc1cc(CNC(=O)[C@@]2(Cc3ccccc3)OC(=O)N([C@@H]3CCc4ccccc43)C2=O)cc(OC)c1 [Compound 11, (5R)-5-Benzyl-3-[(1R)-2,3-dihydro-1H-inden-1-yl]-N-(3,5-dimethoxybenzyl)-2,4-dioxo-1,3-oxazolidine-5-carboxamide]"
5,< 100,"COc1cc(CNC(=O)[C@@]2(Cc3ccccc3)OC(=O)N([C@H](C)c3ccccc3)C2=O)cc(OC)c1 [Compound 1, (5R)-Benzyl-N-(3,5-dimethoxybenzyl)-2,4-dioxo-3-[(1R)-1-phenylethyl]-1,3-oxazolidine-5-carboxamide]"
6,100 to 500,"C[C@H](C1CCCCC1)N1C(=O)O[C@](Cc2ccc(F)cc2)(C(=O)Nc2ccc(Cl)cc2)C1=O [Compound 16, (5R)-N-(4-Chlorophenyl)-3-[(1R)-1-cyclohexylethyl]-5-(4-fluorobenzyl)-2,4-dioxo-1,3-oxazolidine-5-carboxamide]"
7,100 to 500,"C[C@H](c1ccccc1)N1C(=O)O[C@](Cc2ccccc2)(C(=O)N[C@H]2C[C@H](c3ccccc3)C2)C1=O [Compound 4, (5R)-5-Benzyl-2,4-dioxo-N-(trans-3-phenylcyclobutyl)-3-[(1R)-1-phenylethyl]-1,3-oxazolidine-5-carboxamide]"
8,100 to 500,"C[C@H](c1ccc(F)cc1)N1C(=O)O[C@](Cc2ccccc2)(C(=O)Nc2ccccc2)C1=O [Compound 19, (5R)-5-Benzyl-3-[(1R)-1-(4-fluorophenyl)ethyl]-2,4-dioxo-N-phenyl-1,3-oxazolidine-5-carboxamide]"
9,100 to 500,C[C@H](c1ccc(F)cc1)N1C(=O)O[C@](Cc2ccccc2)(C(=O)Nc2cccnc2)C1=O [Compound 20]
10,< 100,"COc1cc(CNC(=O)[C@@]2(Cc3ccccc3)OC(=O)N([C@H](C)C3CCCCC3)C2=O)cc(OC)c1 [Compound 10, (5R)-5-Benzyl-3-[(1R)-1-cyclohexylethyl]-N-(3,5-dimethoxybenzyl)-2,4-dioxo-1,3-oxazolidine-5-carboxamide]"
11,100 to 500,"C[C@H](c1ccc(F)cc1)N1C(=O)O[C@](Cc2ccc(F)cc2)(C(=O)NCc2ccc(Cl)c(Cl)c2)C1=O [Compound 2, (5R)-N-(3,4-Dichlorobenzyl)-5-(4-fluorobenzyl)-3-[(1R)-1-(4-fluorophenyl)ethyl]-2,4-dioxo-1,3-oxazolidine-5-carboxamide]"
12,100 to 500,"C[C@H](c1ccc(F)cc1)N1C(=O)O[C@](Cc2ccccc2)(C(=O)Nc2ccc(F)cc2)C1=O [Compound 15, (5R)-5-Benzyl-N-(4-fluorophenyl)-3-[(1R)-1-(4-fluorophenyl)ethyl]-2,4-dioxo-1,3-oxazolidine-5-carboxamide]"
13,< 100,"COc1cc(CNC(=O)[C@@]2(Cc3ccccc3)OC(=O)N([C@H](C)c3ccc(Cl)cc3)C2=O)cc(OC)c1 [Compound 9, (5R)-5-Benzyl-3-[(1R)-1-(4-chlorophenyl)ethyl]-N-(3,5-dimethoxybenzyl)-2,4-dioxo-1,3-oxazolidine-5-carboxamide]"
14,100 to 500,"C[C@H](c1ccc(F)cc1)N1C(=O)O[C@](Cc2ccccc2)(C(=O)Nc2cccc(F)c2)C1=O [Compound 13, (5R)-5-Benzyl-N-(3-fluorophenyl)-3-[(1R)-1-(4-fluorophenyl)ethyl]-2,4-dioxo-1,3-oxazolidine-5-carboxamide]"
15,100 to 500,"C[C@H](C1CCCCC1)N1C(=O)O[C@](Cc2ccccc2)(C(=O)NCc2ccc(Cl)c(Cl)c2)C1=O [Compound 17, (5R)-5-Benzyl-3-[(1R)-1-cyclohexylethyl]-N-(3,4-dichlorobenzyl)-2,4-dioxo-1,3-oxazolidine-5-carboxamide]"
16,100 to 500,"C[C@H](c1ccccc1)N1C(=O)O[C@](Cc2ccccc2)(C(=O)N2CCc3ccccc3C2)C1=O [Compound 21, (5R)-Benzyl-5-(3,4-dihydroisoquinolin-2(1H)-ylcarbonyl)-3-[(1R)-1-phenylethyl]-1,3-oxazolidine-2,4-dione]"
17,500 to 4500,"C[C@H](c1ccccc1)N1C(=O)N[C@](Cc2ccccc2)(C(=O)N2CCc3ccccc3C2)C1=O (single isomer, unassigned) [Compound 23]"
18,100 to 500,"COc1cc(CNC(=O)[C@@]2(Cc3ccc(F)cc3)OC(=O)N([C@H](C)c3ccccc3)C2=O)cc(OC)c1 [Compound 3, (5R)-N-(3,5-Dimethoxybenzyl)-5-(4-fluorobenzyl)-2,4-dioxo-3-[(1R)-1-phenylethyl]-1,3-oxazolidine-5-carboxamide]"
